# The source made the active and inactive calls.
# How the values were obtained:
# Cytochrome P450 3A4 = Cytochrome P450 3A4 (Homo sapiens, UniProt P08684);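 also: CYP3A4 tested as one member of a cytochrome P450 panel screen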
# Cytochrome P450 2C19 = Cytochrome P450 2C19 (Homo sapiens, UniProt P33261); assay: Cytochrome panel assay with activity outcomes. Panel member name: p450-cyp2c19 Compounds with AC50 equal or less than 10 uM are considered active; format: functional; details: read-out: AC50
# Cytochrome P450 2C19, sequence (P33261 whole entry): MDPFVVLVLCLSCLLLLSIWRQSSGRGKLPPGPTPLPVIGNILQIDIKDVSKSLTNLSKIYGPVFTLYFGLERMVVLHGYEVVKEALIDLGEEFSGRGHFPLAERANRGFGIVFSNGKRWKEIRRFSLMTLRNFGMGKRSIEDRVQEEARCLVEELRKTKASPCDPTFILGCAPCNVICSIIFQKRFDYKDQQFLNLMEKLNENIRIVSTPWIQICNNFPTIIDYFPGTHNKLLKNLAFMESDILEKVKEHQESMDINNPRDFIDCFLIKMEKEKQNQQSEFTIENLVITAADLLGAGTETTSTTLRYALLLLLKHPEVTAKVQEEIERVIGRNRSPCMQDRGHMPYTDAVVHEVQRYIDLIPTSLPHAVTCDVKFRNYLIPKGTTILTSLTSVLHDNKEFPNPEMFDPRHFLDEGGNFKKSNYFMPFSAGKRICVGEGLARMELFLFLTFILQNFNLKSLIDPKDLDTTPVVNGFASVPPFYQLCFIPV
# Cytochrome P450 2C9 = Cytochrome P450 2C9 (Homo sapiens, UniProt P11712)
# Cytochrome P450 2C9, sequence (P11712 whole entry): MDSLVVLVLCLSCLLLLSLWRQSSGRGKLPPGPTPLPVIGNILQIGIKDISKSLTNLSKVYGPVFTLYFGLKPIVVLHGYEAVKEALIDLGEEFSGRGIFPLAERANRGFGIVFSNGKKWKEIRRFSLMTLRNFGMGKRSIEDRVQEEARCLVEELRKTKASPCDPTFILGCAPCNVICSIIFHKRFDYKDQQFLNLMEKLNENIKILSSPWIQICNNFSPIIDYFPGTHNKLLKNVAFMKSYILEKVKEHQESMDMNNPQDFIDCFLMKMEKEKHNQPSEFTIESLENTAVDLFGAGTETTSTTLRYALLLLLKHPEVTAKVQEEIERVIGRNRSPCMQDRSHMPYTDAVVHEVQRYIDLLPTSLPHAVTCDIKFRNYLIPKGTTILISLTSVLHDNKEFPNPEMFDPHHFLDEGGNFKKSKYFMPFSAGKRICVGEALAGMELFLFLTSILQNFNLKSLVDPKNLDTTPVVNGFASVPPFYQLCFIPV
# HEK293 = assay: inhibitors of LMP1-driven NF-kB reporter, dose response, cell-based, HEK293, luciferase, cherry-pick (AID 588343); format: functional; details: Homo sapiens
# [1] = Luminescence Cell-Based Dose Response HTS to Identify Inhibitors of 5'UTR Stem-Loop Driven Prion Protein mRNA Translation in H4 Neuroglioblastoma Cells. [Related pubchem assays: 1827 (Project Summary), 1813 (Primary HTS)]; format: functional
# Vero [2] = assay: cells; format: functional; details: Chlorocebus sabaeus
# [3] = inhibitors of firefly luciferase expression or activity, dose response, H4 neuroglioma cells, luminescence (AID 1990); format: functional, cell-based
# [4] = tested on: Streptococcus sp. 'group A'; assay: growth inhibition of control SK(-) GAS strain, dose response, counter-screen for streptokinase expression inhibitor project, luminescence, kanamycin, BacTiterGlo, confirmation (AID 1900); format: functional, organism-based
# Vero [5] = assay: Vero cell cytotoxicity, cytotoxicity control for flavivirus capping enzyme inhibitors (AID 588742); format: functional; details: Chlorocebus sabaeus
# Streptococcus = assay: Group A Streptococcus viability loss, dose response, counter-screen for streptokinase expression inhibitor project, luminescence, BacTiterGlo (AID 1915); format: functional, organism-based;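 also: potency for reduction of bacterial viability or growth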
# [6] = target: T1, Sentrin-specific protease 6 (Homo sapiens, UniProt Q9GZR1); format: functional;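 also: Luminescence-based dose-response confirmatory assay of SENP6 inhibition, following up an ultra-high-throughput screen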
# T1 sequence (Q9GZR1 whole entry): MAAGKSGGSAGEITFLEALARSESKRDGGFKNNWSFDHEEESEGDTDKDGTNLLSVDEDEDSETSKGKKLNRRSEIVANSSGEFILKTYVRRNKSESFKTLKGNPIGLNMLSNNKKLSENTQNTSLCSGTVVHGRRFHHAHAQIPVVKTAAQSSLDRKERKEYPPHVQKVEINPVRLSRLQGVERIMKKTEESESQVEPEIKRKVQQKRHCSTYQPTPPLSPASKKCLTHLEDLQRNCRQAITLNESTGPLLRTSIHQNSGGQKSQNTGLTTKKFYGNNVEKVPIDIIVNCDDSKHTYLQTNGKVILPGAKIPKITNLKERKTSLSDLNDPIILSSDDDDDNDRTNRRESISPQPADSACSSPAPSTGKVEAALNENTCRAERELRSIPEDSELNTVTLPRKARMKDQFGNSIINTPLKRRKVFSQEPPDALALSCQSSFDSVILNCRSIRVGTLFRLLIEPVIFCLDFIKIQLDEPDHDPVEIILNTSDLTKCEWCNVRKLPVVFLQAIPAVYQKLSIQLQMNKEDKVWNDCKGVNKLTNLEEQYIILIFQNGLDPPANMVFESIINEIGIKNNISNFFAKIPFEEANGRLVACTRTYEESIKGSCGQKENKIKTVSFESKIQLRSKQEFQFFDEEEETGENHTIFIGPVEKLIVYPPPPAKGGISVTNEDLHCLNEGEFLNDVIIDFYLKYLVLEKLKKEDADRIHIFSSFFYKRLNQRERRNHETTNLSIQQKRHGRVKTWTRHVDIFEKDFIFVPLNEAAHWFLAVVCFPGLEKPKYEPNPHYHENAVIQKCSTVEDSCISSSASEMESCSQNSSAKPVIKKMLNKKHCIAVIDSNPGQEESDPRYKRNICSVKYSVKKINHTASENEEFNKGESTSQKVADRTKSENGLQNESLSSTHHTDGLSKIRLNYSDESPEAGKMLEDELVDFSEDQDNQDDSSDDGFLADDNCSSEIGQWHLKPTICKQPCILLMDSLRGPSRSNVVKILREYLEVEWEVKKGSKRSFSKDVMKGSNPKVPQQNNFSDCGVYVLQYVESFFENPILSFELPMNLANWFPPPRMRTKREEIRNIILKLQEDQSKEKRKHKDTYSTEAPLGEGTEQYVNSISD
# [7] = target: T2, Sentrin-specific protease 7 (Homo sapiens, UniProt Q9BQF6); format: functional;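 also: Luminescence-based dose-response confirmation of ultra-high-throughput screening hits, measuring inhibition of SENP7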
# T2 sequence (Q9BQF6 whole entry): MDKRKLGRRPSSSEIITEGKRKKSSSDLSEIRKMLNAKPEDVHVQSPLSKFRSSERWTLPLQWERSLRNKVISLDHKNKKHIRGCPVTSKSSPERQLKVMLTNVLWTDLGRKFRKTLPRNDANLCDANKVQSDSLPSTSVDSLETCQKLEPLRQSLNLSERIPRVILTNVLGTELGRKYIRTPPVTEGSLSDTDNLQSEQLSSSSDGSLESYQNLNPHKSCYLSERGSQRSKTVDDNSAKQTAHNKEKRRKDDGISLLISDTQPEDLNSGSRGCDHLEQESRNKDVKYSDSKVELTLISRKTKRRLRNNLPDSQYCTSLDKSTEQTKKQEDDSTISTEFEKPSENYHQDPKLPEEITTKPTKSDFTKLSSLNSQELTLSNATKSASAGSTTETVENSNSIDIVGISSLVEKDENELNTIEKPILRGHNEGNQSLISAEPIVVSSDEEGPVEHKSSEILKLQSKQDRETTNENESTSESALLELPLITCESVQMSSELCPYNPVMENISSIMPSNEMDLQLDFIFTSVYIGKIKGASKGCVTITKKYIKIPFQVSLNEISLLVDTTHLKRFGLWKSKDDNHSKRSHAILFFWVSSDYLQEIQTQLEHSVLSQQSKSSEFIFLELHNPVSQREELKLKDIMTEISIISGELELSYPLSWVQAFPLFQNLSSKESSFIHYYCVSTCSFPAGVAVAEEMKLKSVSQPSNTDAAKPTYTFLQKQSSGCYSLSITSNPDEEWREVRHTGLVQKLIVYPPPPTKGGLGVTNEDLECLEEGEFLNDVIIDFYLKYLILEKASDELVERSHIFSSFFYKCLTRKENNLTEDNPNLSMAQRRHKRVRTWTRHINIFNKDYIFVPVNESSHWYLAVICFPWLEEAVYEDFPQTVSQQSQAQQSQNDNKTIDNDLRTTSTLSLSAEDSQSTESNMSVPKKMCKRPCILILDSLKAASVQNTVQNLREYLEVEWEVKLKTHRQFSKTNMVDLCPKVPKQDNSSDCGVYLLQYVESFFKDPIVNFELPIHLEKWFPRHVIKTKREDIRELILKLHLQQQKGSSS
# [8] = target: T3, Sentrin-specific protease 8 (Homo sapiens, UniProt Q96LD8); format: functional;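 also: luminescence read-out of SENP8 inhibition, dose-response confirmation following an ultra-high-throughput screen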
# T3 sequence (Q96LD8 whole entry): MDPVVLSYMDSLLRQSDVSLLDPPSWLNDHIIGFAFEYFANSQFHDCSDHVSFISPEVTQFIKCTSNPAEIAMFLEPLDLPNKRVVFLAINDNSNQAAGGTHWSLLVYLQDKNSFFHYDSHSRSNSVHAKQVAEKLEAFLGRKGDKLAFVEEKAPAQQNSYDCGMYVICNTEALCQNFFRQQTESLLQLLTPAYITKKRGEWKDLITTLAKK
# Caspase-3 = target: T4, Caspase-3 (Homo sapiens, UniProt P42574); format: functional;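 also: Dose-response selectivity test against caspase-3 for candidate inhibitors of sentrin-specific proteases (SENPs)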
# T4 sequence (P42574 whole entry): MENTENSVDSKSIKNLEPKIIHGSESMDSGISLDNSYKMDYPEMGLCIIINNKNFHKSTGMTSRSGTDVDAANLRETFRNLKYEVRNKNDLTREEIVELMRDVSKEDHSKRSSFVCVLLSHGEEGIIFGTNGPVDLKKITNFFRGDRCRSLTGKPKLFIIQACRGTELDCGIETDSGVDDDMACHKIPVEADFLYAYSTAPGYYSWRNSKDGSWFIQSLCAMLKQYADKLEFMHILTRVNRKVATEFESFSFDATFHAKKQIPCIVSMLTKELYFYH
# Cytochrome P450 1A2 = target: T5, Cytochrome P450 1A2 (Homo sapiens, UniProt P05177);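 also: PubChem cytochrome P450 panel assay, CYP1A2 panel member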
# T5 sequence (P05177 whole entry): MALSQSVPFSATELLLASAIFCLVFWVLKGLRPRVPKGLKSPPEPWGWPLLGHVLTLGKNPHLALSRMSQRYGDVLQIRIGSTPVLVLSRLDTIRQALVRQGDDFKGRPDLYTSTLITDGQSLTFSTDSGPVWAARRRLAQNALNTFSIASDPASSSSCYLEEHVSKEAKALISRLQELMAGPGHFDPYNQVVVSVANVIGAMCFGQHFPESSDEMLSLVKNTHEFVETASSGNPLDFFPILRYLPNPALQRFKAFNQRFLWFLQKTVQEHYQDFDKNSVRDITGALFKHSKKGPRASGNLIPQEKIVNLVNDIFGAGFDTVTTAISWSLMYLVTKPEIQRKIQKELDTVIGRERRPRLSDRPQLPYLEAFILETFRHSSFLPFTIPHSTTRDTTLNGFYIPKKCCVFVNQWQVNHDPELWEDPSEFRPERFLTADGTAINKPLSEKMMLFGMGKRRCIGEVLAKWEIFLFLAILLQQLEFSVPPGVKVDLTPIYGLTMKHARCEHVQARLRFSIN
# Genome polyprotein = Genome polyprotein (dengue virus type 2, UniProt P29990); assay: Dengue-2 NS5 methyltransferase inhibitors, primary screen, biochemical, confirmation dose response (AID 588689); format: functional
# Genome polyprotein, sequence (P29990 2492-3391 limits assumed): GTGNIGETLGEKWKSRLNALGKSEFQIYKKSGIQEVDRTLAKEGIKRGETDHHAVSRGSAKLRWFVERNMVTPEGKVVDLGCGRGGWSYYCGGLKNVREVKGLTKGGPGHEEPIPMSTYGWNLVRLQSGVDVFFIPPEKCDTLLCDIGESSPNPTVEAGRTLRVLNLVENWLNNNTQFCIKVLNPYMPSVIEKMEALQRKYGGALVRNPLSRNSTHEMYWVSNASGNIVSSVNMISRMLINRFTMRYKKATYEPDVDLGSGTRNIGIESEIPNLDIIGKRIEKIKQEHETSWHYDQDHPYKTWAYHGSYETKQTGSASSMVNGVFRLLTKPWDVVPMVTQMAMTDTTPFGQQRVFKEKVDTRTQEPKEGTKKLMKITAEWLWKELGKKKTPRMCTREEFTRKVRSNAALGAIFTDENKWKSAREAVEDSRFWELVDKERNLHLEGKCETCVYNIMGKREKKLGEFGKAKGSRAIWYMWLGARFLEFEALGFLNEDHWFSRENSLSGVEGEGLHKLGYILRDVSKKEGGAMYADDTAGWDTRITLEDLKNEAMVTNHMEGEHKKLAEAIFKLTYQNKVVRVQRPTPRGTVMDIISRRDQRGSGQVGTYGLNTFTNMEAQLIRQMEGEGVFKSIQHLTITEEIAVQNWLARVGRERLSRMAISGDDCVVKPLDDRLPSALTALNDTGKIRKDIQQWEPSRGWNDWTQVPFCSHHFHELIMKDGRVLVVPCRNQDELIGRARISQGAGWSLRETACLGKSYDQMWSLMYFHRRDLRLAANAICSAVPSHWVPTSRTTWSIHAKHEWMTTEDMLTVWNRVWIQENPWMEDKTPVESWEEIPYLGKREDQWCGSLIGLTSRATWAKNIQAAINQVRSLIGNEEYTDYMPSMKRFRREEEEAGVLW
# [9] = target: T6, Histone-lysine N-methyltransferase NSD2 (Homo sapiens, UniProt O96028); format: biochemical
# T6 sequence (O96028 whole entry): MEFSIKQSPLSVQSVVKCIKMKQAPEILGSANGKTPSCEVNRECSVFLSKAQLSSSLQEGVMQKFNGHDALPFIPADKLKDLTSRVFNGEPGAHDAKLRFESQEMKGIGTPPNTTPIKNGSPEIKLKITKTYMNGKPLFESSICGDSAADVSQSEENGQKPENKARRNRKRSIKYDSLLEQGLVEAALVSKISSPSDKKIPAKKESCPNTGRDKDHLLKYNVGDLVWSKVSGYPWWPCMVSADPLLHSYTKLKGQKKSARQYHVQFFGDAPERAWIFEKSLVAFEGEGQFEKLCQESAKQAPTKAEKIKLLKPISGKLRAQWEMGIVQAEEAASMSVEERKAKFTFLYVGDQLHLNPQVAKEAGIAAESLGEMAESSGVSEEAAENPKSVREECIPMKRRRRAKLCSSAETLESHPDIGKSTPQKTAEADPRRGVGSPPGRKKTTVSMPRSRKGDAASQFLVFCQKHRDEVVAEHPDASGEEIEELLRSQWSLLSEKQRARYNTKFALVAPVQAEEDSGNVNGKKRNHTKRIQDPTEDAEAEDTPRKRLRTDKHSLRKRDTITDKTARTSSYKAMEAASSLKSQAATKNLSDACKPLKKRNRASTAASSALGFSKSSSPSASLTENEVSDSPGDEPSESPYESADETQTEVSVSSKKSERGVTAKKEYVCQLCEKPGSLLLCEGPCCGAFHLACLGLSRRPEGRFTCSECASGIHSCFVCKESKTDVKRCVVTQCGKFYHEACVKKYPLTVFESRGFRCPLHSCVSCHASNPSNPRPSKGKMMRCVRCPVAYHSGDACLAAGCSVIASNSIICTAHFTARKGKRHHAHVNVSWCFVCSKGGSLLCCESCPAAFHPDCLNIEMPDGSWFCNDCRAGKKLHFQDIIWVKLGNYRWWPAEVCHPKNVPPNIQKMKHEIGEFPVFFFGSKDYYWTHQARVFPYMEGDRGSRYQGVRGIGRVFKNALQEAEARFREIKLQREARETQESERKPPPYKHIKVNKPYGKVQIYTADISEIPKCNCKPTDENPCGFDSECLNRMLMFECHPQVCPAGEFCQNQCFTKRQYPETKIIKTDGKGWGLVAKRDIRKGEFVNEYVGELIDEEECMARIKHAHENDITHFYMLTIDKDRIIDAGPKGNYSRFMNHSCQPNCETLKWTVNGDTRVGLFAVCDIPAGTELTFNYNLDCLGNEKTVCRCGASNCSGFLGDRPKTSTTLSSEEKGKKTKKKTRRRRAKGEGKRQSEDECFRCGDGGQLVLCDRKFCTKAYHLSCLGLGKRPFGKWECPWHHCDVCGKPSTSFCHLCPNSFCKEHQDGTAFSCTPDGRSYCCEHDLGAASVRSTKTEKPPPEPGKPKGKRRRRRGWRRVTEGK
# Cytochrome P450 3A4, sequence (P08684 whole entry): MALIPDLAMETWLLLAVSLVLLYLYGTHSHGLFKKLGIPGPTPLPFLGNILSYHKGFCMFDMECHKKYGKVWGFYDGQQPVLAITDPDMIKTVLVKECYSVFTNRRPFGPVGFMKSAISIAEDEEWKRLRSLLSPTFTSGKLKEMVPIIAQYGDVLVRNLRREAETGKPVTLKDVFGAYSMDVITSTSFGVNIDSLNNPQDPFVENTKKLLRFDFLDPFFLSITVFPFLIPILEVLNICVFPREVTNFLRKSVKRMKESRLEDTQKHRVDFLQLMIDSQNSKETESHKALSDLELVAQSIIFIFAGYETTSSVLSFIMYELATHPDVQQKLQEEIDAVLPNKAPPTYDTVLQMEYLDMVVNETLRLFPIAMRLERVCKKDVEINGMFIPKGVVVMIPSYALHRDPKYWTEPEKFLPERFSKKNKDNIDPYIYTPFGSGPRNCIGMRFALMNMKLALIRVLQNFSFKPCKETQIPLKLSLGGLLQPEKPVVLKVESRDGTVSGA
smiles,measurement,setting,value
CCc1ccc(C(=O)COC(=O)c2cccc(N3C(=O)c4c(C)nc5ccccc5c4C3=O)c2)cc1,AC50,Cytochrome P450 3A4,22.4 µM (inconclusive)
same,AC50,Cytochrome P450 2C19,7.08 µM (inconclusive)
same,AC50,Cytochrome P450 2C9,3.16 µM (inconclusive)
same,AC50,HEK293,16.7 µM (active)
Cc1n[nH]c(O)c1C(c1c(C)n[nH]c1O)c1cn(Cc2ccc(Cl)c(Cl)c2)c2ccccc12,EC50,[1],0.26 µM (active)
same,CC50,Vero [2],10.1 µM (active)
same,EC50,[3],13.6 µM (active)
same,EC50,[4],4.35 µM (active)
same,CC50,Vero [5],5.47 µM (active)
same,EC50,Streptococcus,77.9 µM (active)
COc1ccc(NC(=O)c2ccc(OCC3CCCO3)cc2)cc1Cl (centres undefined),IC50,[6],> 100 µM (inactive)
same,IC50,[7],5.56 µM (active)
same,IC50,[8],> 100 µM (inactive)
same,IC50,Caspase-3,15.6 µM (active)
O=C(Nc1nc2ccc(F)cc2s1)C1=COCCO1,AC50,HEK293,2.38 µM (active)
Cc1sc2c(c1C)C(c1ccc(C(C)(C)C)cc1)=NCC(=O)N2CC(=O)Nc1nccs1,CC50,Vero [5],> 40 µM (active)
same,AC50,Cytochrome P450 1A2,22.4 µM (inconclusive)
Cc1ccc(S(=O)(=O)/N=C2\C=C(NS(=O)(=O)c3ccccc3)C(=O)c3ccccc32)cc1,IC50,Genome polyprotein,35.8 µM (active)
same,AC50,[9],2.18 µM (active)
same,CC50,Vero [5],> 40 µM (active)
CC(=O)Nc1ccc(C=NNc2nnc(NN=Cc3ccc(NC(C)=O)cc3)c3ccccc23)cc1,AC50,HEK293,0.932 µM (active)
NC(=S)N=Nc1c(O)cc(O)c2nc(O)ccc12,IC50,Genome polyprotein,20 µM (active)
same,CC50,Vero [5],> 40 µM (active)
CCOc1ccc(/N=C/c2c(O)oc3ccccc3c2=O)cc1,IC50,[6],26.2 µM (active)
same,IC50,[7],6.32 µM (active)
same,IC50,[8],> 100 µM (inactive)
same,IC50,Caspase-3,32.8 µM (active)
NC(=O)c1ccccc1N/C=C/C(=O)c1cccs1,AC50,HEK293,22.5 µM (active)
COc1ccc(N2Cc3ccccc3C2=O)cc1,AC50,HEK293,12.5 µM (active)
